Reference: patent US20240343753A1, “THERAPEUTIC COMPOUNDS” (Regents of the University of Minnesota, priority 2023, published 2024)

Legend:
K562 cells = assay: 5hmC dot blot in K562 cells treated with inhibitor; assay type: cell-based, human; settings: 5 μM compound, 24 hours, genomic DNA dot blot, normalized to DMSO
Description: Cells were grown in MEM media supplemented with 10% FBS (Gibco by Life Technologies TM, #16140-071) and AntibioticAntimycotic (Gibco by Life Technologies TM, #15240062) at 37° C. under 5% CO2. Solutions of inhibitors were prepared in dimethyl sulfoxide (DMSO) were incubated with cells at the specific concentration and duration prior to collection and extraction of genomic DNA.
For cellular assays, genomic DNA was extracted using DNA Blood/Tissue Kit, denatured, and subjected to dot blotting analysis using antibody against 5hmC (Active Motif, #39769) as previously described.^22 Briefly, 2 μg of purified DNA was denatured at 100° C. and mixed 1:1 with 2M NaOAc. DNA was loaded to the membrane, washed, and blocked with 5% NFM. Primary antibody for 5-hmC was incubated overnight and detected by fluorescence. The DNA spotted membrane was then stained with 0.02% methylene blue in 0.5 M sodium acetate (pH 5.0) for DNA loading control. The same protocol was followed for in vitro assays.
K562 cells, a TET proficient leukemia model, were treated with 5 μM of respective compound for 24 hours. Genomic DNA was extracted and 5hmC levels were quantified via dot blot (FIG. 1A and FIG. 1B).

[1] = molecular target: T1, recombinant human TET1 catalytic domain (Homo sapiens, UniProt Q8NFU7); assay: In vitro TET1 activity assay, LC-MS/MS quantitation of 5hmC; assay type: biochemical; settings: for TET inhibition (in words): TET1 catalytic domain, hemimethylated oligomer substrate, FIG. 2; for reduced hmC production in comparison to DMSO control: 30 minute incubation
T1 construct: enzymatically active catalytic domain of human TET1; purchased Active Motif 31417
T1 sequence (Q8NFU7 1418-2136 limits assumed): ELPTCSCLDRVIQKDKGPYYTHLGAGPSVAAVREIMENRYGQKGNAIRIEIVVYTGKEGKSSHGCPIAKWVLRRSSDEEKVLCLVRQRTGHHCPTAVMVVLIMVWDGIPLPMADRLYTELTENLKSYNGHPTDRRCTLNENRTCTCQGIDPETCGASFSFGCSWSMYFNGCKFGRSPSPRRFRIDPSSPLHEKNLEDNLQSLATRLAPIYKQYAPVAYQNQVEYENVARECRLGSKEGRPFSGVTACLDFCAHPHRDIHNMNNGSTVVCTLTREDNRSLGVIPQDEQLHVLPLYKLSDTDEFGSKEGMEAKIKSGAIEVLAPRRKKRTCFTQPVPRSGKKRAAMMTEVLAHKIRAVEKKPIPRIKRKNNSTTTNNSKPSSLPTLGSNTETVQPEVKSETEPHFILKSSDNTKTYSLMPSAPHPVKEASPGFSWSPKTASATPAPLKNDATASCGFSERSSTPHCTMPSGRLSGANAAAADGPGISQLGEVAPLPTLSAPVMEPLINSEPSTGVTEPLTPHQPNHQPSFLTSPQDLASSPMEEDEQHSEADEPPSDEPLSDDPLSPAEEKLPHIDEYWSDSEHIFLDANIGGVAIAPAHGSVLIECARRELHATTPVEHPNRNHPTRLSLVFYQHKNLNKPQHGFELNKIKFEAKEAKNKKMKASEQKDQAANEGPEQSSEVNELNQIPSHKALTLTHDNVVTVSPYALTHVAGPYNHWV
Description: (§1) For in vitro TET assays, 10 pmol of 16-mer hemi-methylated synthetic dsDNA oligomer designed after the Rassfla tumor suppressor gene promotor (5′-AATTAGAA[5meC]GCTCCTT3′) was incubated with 2×TET reaction buffer (50 mM HEPES [pH 7.9], 100 mM NaCl, 75 μM Fe(NH4)2(SO4)2, 2 mM ascorbate, 10 μM α-ketoglutarate, 1 mM DTT), recombinant human TET1 or TET2 catalytic domain (0.2 μg, 2.3 pmol, 115 nM) and 5% DMSO (or inhibitor in DMSO) on a 20 μL scale. Timing was achieved by withholding protein until the ‘start’ of the incubation window. Reactions were completed on a dry block at 37° C. for 30 minutes. Reactions were terminated at the ‘end’ of the incubation window by transferring reaction tubes to dry ice to snap-freeze the reaction until all replicates were completed. Upon completion, all samples were heat-inactivated at 90° C. for 10 minutes and then dried entirely in SpeedVac concentrator. Sample were then prepared for LCMS or dot blot analysis. HPLC-ESI-MS/MS quantitation of 5mC and 5hmC.
Quantitation of 5hmC is based on methodology previously described in Seiler et al., with slight modification.^21 Dried enzymatic reaction samples were reconstituted with mQ-water and spiked with 1 pmol each of 5-Methyl-2′-deoxycytidine-d3 and 5-(Hydroxymethyl)-2′deoxycytidine-d3. Nucleotide digestion enzyme mix and buffer were added per product guidelines on a 20 μL scale. Samples were digested for 60 min at 37° C. on a dry block. Following digestion, samples were filtered on nanosep 10K Omega filters. The samples were then dried entirely and resuspended in 100 μL mQ-water for offline HPLC cleanup to enrich 5hmC. An Atlantis T3 column (Waters, 4.6×150 mm, 3 μm) was eluted at a flow of 0.9 mL/min with a linear gradient previously described of 5 mM NH4CHO2 buffer, pH 4.0 (A) and MeOH (B). Fractions containing 5meC and 5hmC were collected and pooled before analysis by isotope dilution HPLC-ESI-MS/MS. Pooled samples were dried and reconstituted in 2 mM ammonium formate buffer (NH4CHO2) with a Dionex Ultimate 3000UHPLC (Thermo Fisher) interfaced with a Thermo TSQ Quantis mass spectrometer (Thermo Fisher) flowing 2 mM NH4CHO2 (A) and ACN (B) at 15 μL/min through a Zorbax SB-C18 column (Agilent, 0.5×150 mm, 3 μm) with the gradients as previously described. 5meC and 5-d3-meC eluted at 5.1 minutes while 5hmC and 5-d3-hmC eluted at 3.5 minutes. Quantitation was completed monitoring MS/MS transitions m/z 242.1 [M+H^+]→m/z 126.1 [M-deoxyribose+H^+] for 5meC, m/z 245.2 [M+H^+]→m/z 129.0 [M-deoxyribose+H^+] for 5-d3-meC, m/z 258.1 [M+H^+]→m/z 142.1 [M-deoxyribose+H^+] for 5hmC, m/z 261.1 [M+H^+]→m z 145.1 [M-deoxyribose+H^+] for 5-d3-hmC. […]
Compounds 13b and 15 were taken forward and incubated with recombinant TET1 and TET2 protein to further evaluate their potential TET inhibitory activity. The compounds 13b and 15 were taken forward and evaluated in an in vitro TET activity assay with the enzymatically active catalytic domain of human TET1 using a hemimethylated synthetic oligomer substrate. Following a 30 minute enzymatic incubation time in the presence or absence of inhibitor, the reactions were halted through denaturation, and levels of 5mC 5hmC were quantified via LCMS/MS via direct isotope dilution (Seiler, C. L., et al., Biochemistry 2018, 57 (42), 6061-6069).

[2] = molecular target: T2, recombinant human TET2 catalytic domain (Homo sapiens, UniProt Q6N021); assay: In vitro TET2 activity assay, LC-MS/MS quantitation; assay type: biochemical; settings: 30 minute incubation, FIG. 3; read-out: IC50, TET2 mediated conversion of 5mC to 5hmC
T2 construct: recombinant human TET1 or TET2 catalytic domain; purchased Active Motif 31418
Description: as §1, with “Upon completion, all samples were heat-inactivated at 90° C. for 10 minutes and then dried entirely in SpeedVac concentrator. Sample were then prepared for LCMS or dot blot analysis.” left out
Quantitation of 5hmC is based on methodology previously described in Seiler et al., with slight modification.^21 Dried enzymatic reaction samples were reconstituted with mQ-water and spiked with 1 pmol each of 5-Methyl-2′-deoxycytidine-d3 and 5-(Hydroxymethyl)-2′deoxycytidine-d3. […] Quantitation was completed monitoring MS/MS transitions m/z 242.1 [M+H^+]→m/z 126.1 [M-deoxyribose+H^+] for 5meC, m/z 245.2 [M+H^+]→m/z 129.0 [M-deoxyribose+H^+] for 5-d3-meC, m/z 258.1 [M+H^+]→m/z 142.1 [M-deoxyribose+H^+] for 5hmC, m/z 261.1 [M+H^+]→m z 145.1 [M-deoxyribose+H^+] for 5-d3-hmC. […]

Row | TET inhibition (in words) [1] | IC50 [2] [µM] | reduced hmC production in comparison to DMSO control ([1]; 10 μM inhibitor) [%] | reduced hmC production in comparison to DMSO control ([1]; 100 μM inhibitor) [%] | reduced hmC production in comparison to DMSO control ([1]; 500 μM inhibitor) [%] | Compound | lowered the relative levels of 5hmC (K562 cells) [%]
1 | – | – | – | – | – | COC(=O)/C=C/C(=O)N(O)CCC#Cc1cn([C@H]2C[C@H](O)[C@@H](CO)O2)c(=O)nc1N [Compound 11, methyl (E)-4-((4-(4-amino-1-((2R,4S,5R)-4-hydroxy-5-(hydroxymethyl)-tetrahydrofuran-2-yl)-2-oxo-1,2-dihydropyrimidin-5-yl)but-3-yn-1-yl)(hydroxy)amino)-4-oxobut-2-enoate] | 30±8
2 | – | – | – | – | – | Nc1nc(=O)n([C@H]2C[C@H](O)[C@@H](CO)O2)cc1C#CCCNC(=O)/C=C/C(=O)O [Compound 14, (E)-4-((4-(4-amino-1-((2R,4S,5R)-4-hydroxy-5-(hydroxymethyl)tetrahydrofuran-2-yl)-2-oxo-1,2-dihydropyrimidin-5-yl)but-3-yn-1-yl)amino)-4-oxobut-2-enoic acid] | 26±21
3 | dose-dependent TET inhibition | – | – | – | – | Nc1nc(=O)n([C@H]2C[C@H](O)[C@@H](CO)O2)cc1C#CCCN(O)C(=O)/C=C/C(=O)O [Compound 15, (E)-4-((4-(4-amino-1-((2R,4S,5R)-4-hydroxy-5-(hydroxymethyl)tetrahydrofuran-2-yl)-2-oxo-1,2-dihydropyrimidin-5-yl)but-3-yn-1-yl)(hydroxy)amino)-4-oxobut-2-enoic acid] | 47±45
4 | dose-dependent TET inhibition | ~1000 | 22±5 | 30±4 | 85±3 | Nc1nc(=O)n([C@H]2C[C@H](O)[C@@H](CO)O2)cc1C#CCCN(O)C(=O)CCC(=O)O [Compound 13b, 4-((4-(4-amino-1-((2R,4S,5R)-4-hydroxy-5-(hydroxymethyl)tetrahydrofuran-2-yl)-2-oxo-1,2-dihydropyrimidin-5-yl)but-3-yn-1-yl)(hydroxy)amino)-4-oxobutanoic acid] | 55±20
